The target in the assay is T1, CDK9/CycTI (Homo sapiens, UniProt P50750).
T1 construct: purchased Carna biosciences 04-110
Put plainly: In vitro kinase assay (ADP-Glo Kinase Assay Kit), CDK9/CycTI. As to conditions: 30 ng CDK9/CycTI, 30 μM CDKtide, 10 μM ATP, 2 hours at room temperature; 8 to 10-point dose response (Tier2); read-out: IC50 Score. The format is biochemical. As to the method: In vitro kinase assay was performed in white, 384-low volume plates in 5 μl reaction volume consisting of 30 ng CDK9/CycTI (Carna biosciences #04-110), 30 μM CDKtide (Signalchem #C06-58) and 10 μM ATP made in reaction buffer (40 mM Tris, pH 7.5; 20 mM MgCl2; 0.1 mg/ml BSA; 50 μM DTT) at 1 μM & 10 μM compound concentration for Tier1 assay and 8 to 10-point dose response curve for Tier2 assay. After 2 hours of incubation at room temperature, the amounts of […] in the kinase reaction were quantified using ADP-Glo™ Kinase Assay Kit (Promega #V9102). Briefly, 5 μl of ADP-Glo™ reagent was added to stop the kinase reaction and plate was incubated for 40 minutes at room temperature. Subsequently, 10 μl of Kinase Detection Reagent was added and luminescence was recorded after 30 minutes of incubation at room temperature.
The inhibition of kinase activity was determined relative to positive control (2% DMSO) and IC50 was calculated using GraphPad prism software (four parameter-variable slope equation).
In general terms: ADP-Glo first removes unused ATP, then detects ADP through luciferase.

The structures appear in SMILES notation.

T1 sequence (P50750 whole entry): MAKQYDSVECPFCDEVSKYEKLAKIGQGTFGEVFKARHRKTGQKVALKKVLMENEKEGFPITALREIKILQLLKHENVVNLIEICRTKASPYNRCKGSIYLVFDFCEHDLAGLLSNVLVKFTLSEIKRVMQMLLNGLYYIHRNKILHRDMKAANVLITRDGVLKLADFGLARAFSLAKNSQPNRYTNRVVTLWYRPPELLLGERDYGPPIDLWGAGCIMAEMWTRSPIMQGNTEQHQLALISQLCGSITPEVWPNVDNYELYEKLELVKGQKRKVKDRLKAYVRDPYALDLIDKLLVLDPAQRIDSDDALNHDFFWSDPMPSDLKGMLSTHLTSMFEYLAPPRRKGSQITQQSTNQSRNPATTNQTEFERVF
T1 sequence (O60563 whole entry partner): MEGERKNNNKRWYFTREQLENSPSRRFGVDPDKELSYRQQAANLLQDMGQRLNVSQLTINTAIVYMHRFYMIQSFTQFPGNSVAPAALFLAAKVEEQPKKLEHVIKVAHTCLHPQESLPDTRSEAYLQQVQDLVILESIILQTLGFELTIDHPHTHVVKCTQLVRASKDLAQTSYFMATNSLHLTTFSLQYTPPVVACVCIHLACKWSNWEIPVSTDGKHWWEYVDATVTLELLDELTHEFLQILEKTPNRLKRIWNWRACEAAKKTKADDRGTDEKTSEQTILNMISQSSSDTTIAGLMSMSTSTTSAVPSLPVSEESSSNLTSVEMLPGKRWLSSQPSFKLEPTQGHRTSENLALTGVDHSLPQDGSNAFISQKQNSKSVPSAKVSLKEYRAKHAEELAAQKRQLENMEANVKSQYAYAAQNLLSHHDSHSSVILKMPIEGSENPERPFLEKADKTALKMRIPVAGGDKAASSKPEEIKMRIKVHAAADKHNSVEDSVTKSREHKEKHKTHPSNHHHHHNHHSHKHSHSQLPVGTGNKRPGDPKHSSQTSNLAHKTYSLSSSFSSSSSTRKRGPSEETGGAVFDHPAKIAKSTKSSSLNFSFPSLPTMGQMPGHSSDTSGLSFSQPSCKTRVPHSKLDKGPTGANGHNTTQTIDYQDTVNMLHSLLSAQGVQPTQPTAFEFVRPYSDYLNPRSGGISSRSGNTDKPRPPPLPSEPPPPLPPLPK

One may read the IC50 as the midpoint of a concentration-inhibition curve. Turning to `O=C(Nc1nc2ccc3cc(F)ccc3c2s1)C1CCNC1` (single isomer, unassigned) [Compound 51, N-(7-fluoronaphtho[2,1-d]thiazol-2-yl)pyrrolidine-3-carboxamide], the IC50 was in the range of 1 to 100 nM.
As for `CC(=O)N1CCC(C(=O)Nc2nc3ccc4cc(F)ccc4c3s2)CC1` [Compound 86], the IC50 was in the range of 1 to 100 nM.
As for `O=C(Nc1nc2ccc3cc(F)ccc3c2s1)[C@@H]1CCNC1` [Compound 77], the IC50 was in the range of 1000 to 20000 nM.
`O=C(Nc1nc2ccc3cc(F)ccc3c2s1)[C@H]1CCC[C@@H](NS(=O)(=O)C2CC2)C1` [Compound 15-a, (1S,3R)-3-(cyclopropanesulfonamido)-N-(7-fluoronaphtho[2,1-d]thiazol-2-yl)cyclohexane-1-carboxamide]: the IC50 was 1 to 100 nM.
On to `O=C(Nc1nc2ccc3cc(F)ccc3c2s1)[C@H]1CCOC1` [Compound 42], for which the IC50 lay in the range of 100 to 500 nM.
Take `O=C(Nc1nc2ccc3cc(F)ccc3c2s1)[C@@H]1CCCCN1` [Compound 68]: the IC50 was 500 to 1000 nM.
`CC(=O)N1CCC[C@@H]1C(=O)Nc1nc2c(s1)-c1ccc(F)cc1CC2` [Compound 6, (R)-1-acetyl-N-(7-fluoro-4,5-dihydronaphtho[2,1-d]thiazol-2-yl)pyrrolidine-2-carboxamide]: the IC50 was 500 to 1000 nM.
On to `CC(=O)N1CCC[C@H](C(=O)Nc2nc3ccc4cc(F)ccc4c3s2)C1` [Compound 45, (S)-1-acetyl-N-(7-fluoronaphtho[2,1-d]thiazol-2-yl)piperidine-3-carboxamide], for which the IC50 was 1 to 100 nM.
As to `CN[C@@H]1CC[C@H](C(=O)Nc2nc3ccc4cc(F)ccc4c3s2)C1` [Compound 87, (1S,3R)—N-(7-fluoronaphtho[2,1-d]thiazol-2-yl)-3-(methylamino)cyclopentane-1-carboxamide], the IC50 lay in the range of 1 to 100 nM.
Regarding `O=C(Nc1nc2ccc3cc(F)ccc3c2s1)[C@H]1CCCO1` [Compound 10, (R)—N-(7-fluoronaphtho[2,1-d]thiazol-2-yl)tetrahydrofuran-2-carboxamide], the IC50 is 100 to 500 nM.
With `CC(=O)N[C@H]1CCC[C@H](C(=O)Nc2nc3ccc4cc(F)ccc4c3s2)C1` [Compound 16, (1S,3S)-3-acetamido-N-(7-fluoronaphtho[2,1-d]thiazol-2-yl)cyclohexane-1-carboxamide], the IC50 lay in the range of 1 to 100 nM.
In the case of `CC(=O)N1CCNCC1C(=O)Nc1nc2ccc3cc(F)ccc3c2s1` (single isomer, unassigned) [Compound 18-b, 1-acetyl-N-(7-fluoronaphtho[2,1-d]thiazol-2-yl)piperazine-2-carboxamide], the IC50 lay in the range of 1000 to 20000 nM.
With `CC(=O)N[C@@H]1CCC[C@@H](C(=O)Nc2nc3ccc4cc(F)ccc4c3s2)C1` [Compound 81], the IC50 lay in the range of 500 to 1000 nM.
`CC(C)(C)OC(=O)N1CC[C@H](C(=O)Nc2nc3ccc4cc(F)ccc4c3s2)C1` [Compound 59, Tert-butyl (S)-3-((7-fluoronaphtho[2,1-d]thiazol-2-yl)carbamoyl)pyrrolidine-1-carboxylate]: the IC50 fell in the range of 500 to 1000 nM.
In the case of `O=C(Nc1nc2ccc3cc(F)ccc3c2s1)c1cn[nH]c1` [Compound 50, N-(7-fluoronaphtho[2,1-d]thiazol-2-yl)-1H-pyrazole-4-carboxamide], the IC50 was 1000 to 20000 nM.
For `CC(=O)N1CCC(C(=O)Nc2nc3ccc4cc(F)ccc4c3s2)C1` (racemic) [Compound 55, 1-acetyl-N-(7-fluoronaphtho[2,1-d]thiazol-2-yl)pyrrolidine-3-carboxamide], the IC50 was 1 to 100 nM.
Regarding `CC(=O)N[C@@H]1CCC[C@H](C(=O)Nc2nc3ccc4cc(F)ccc4c3s2)C1` [Compound 14, (1S,3R)-3-acetamido-N-(7-fluoronaphtho[2,1-d]thiazol-2-yl)cyclohexane-1-carboxamide], the 50% inhibitory concentration (IC50) lay within 1 to 100 nM.
`O=C(Nc1nc2ccc3cc(F)ccc3c2s1)C1CNC1` [Compound 58, N-(7-fluoronaphtho[2,1-d]thiazol-2-yl)azetidine-3-carboxamide]: the IC50 lay in the range of 100 to 500 nM.
On to `N[C@@H]1CC[C@H](C(=O)Nc2nc3ccc4cc(F)ccc4c3s2)C1` [Compound 26], for which the IC50 is 1 to 100 nM.
As for `CC(=O)N1CCC(C(=O)Nc2nc3ccc4cc(F)ccc4c3s2)C1` (single isomer, unassigned) [Compound 82, 1-acetyl-N-(7-fluoronaphtho[2,1-d]thiazol-2-yl)pyrrolidine-3-carboxamide], the IC50 was 100 to 500 nM.
The figure for `O=C1CC[C@@H](C(=O)Nc2nc3ccc4cc(F)ccc4c3s2)N1` [Compound 8, (S)—N-(7-fluoronaphtho[2,1-d]thiazol-2-yl)-5-oxopyrrolidine-2-carboxamide] is 1 to 100 nM; for `CN1CCC(C(=O)Nc2nc3ccc4cc(F)ccc4c3s2)C1` (single isomer, unassigned) [Compound 70, N-(7-fluoronaphtho[2,1-d]thiazol-2-yl)-1-methylpyrrolidine-3-carboxamide] it is 1 to 100 nM.
Under `C=CC(=O)N[C@@H]1CCC[C@H](C(=O)Nc2nc3ccc4cc(F)ccc4c3s2)C1` [Compound 41, (1S,3R)-3-acrylamido-N-(7-fluoronaphtho[2,1-d]thiazol-2-yl)cyclohexane-1-carboxamide] stands 1 to 100 nM; under `CS(=O)(=O)N[C@@H]1CCC[C@H](C(=O)Nc2nc3ccc4cc(F)ccc4c3s2)C1` [Compound 13-a, (1S,3R)—N-(7-fluoronaphtho[2,1-d]thiazol-2-yl)-3-(methylsulfonamido)cyclohexane-1-carboxamide], 1 to 100 nM.
With `CC(=O)N1CCC[C@@H]1C(=O)Nc1nc2ccc3cc(Cl)ccc3c2s1` [Compound 17, (R)-1-acetyl-N-(7-chloronaphtho[2,1-d]thiazol-2-yl)pyrrolidine-2-carboxamide], the IC50 fell in the range of 1 to 100 nM.
As to `O=C(Nc1nc2ccc3cc(F)ccc3c2s1)[C@@H]1CCN1` [Compound 85, (S)—N-(7-fluoronaphtho[2,1-d]thiazol-2-yl)azetidine-2-carboxamide], the IC50 lay in the range of 100 to 500 nM.
For `CC(=O)N1CC[C@H](C(=O)Nc2nc3ccc4cc(F)ccc4c3s2)C1` [Compound 52, (S)-1-acetyl-N-(7-fluoronaphtho[2,1-d]thiazol-2-yl)pyrrolidine-3-carboxamide], the IC50 was in the range of 1 to 100 nM.
Consider `O=C(Nc1nc2ccc3cc(F)ccc3c2s1)[C@@H]1CCCN1` [Compound 47, (S)—N-(7-fluoronaphtho[2,1-d]thiazol-2-yl)pyrrolidine-2-carboxamide], for which the IC50 lay in the range of 500 to 1000 nM.
Consider `O=C(Nc1nc2ccc3cc(F)ccc3c2s1)[C@H]1CC[C@@H](N2CCOCC2)C1` [Compound 57, (1S,3R)—N-(7-fluoronaphtho[2,1-d]thiazol-2-yl)-3-morpholinocyclopentane-1-carboxamide], for which the IC50 is 1 to 100 nM.
`O=C(Nc1nc2ccc3cc(F)ccc3c2s1)c1c[nH]cn1` [Compound 53, N-(7-fluoronaphtho[2,1-d]thiazol-2-yl)-1H-imidazole-4-carboxamide]: the IC50 lay within 1000 to 20000 nM.
Regarding `CC(=O)N[C@H]1CCC[C@@H](C(=O)Nc2nc3ccc4cc(F)ccc4c3s2)C1` [Compound 79, (1R,3S)-3-acetamido-N-(7-fluoronaphtho[2,1-d]thiazol-2-yl)cyclohexane-1-carboxamide], the IC50 fell in the range of 1 to 100 nM.
For the molecule `CS(=O)(=O)N1CCC[C@@H]1C(=O)Nc1nc2ccc3cc(F)ccc3c2s1` [Compound 9, (R)—N-(7-fluoronaphtho[2,1-d]thiazol-2-yl)-1-(methylsulfonyl)pyrrolidine-2-carboxamide], the IC50 lay within 1 to 100 nM.
As to `CC(=O)N1CCN(C)CC1C(=O)Nc1nc2ccc3cc(F)ccc3c2s1` (single isomer, unassigned) [Compound 32, 1-acetyl-N-(7-fluoronaphtho[2,1-d]thiazol-2-yl)-4-methylpiperazine-2-carboxamide], the IC50 fell in the range of 1000 to 20000 nM.
Consider `CC(C)(C)OC(=O)N1CCCC[C@@H]1C(=O)Nc1nc2ccc3cc(F)ccc3c2s1` [Compound 23], for which the IC50 is 1 to 100 nM.
Regarding `CC(C)(C)OC(=O)N[C@@H]1CC[C@H](C(=O)Nc2nc3ccc4cc(F)ccc4c3s2)C1` [Compound 34], the IC50 fell in the range of 100 to 500 nM.
`CC(=O)N1CCCC[C@H]1C(=O)Nc1nc2ccc3cc(F)ccc3c2s1` (single isomer, unassigned) [Compound 67]: the IC50 was in the range of 1000 to 20000 nM.
In the case of `CC(=O)N1CCNCC1C(=O)Nc1nc2ccc3cc(F)ccc3c2s1` (single isomer, unassigned) [Compound 18-a, 1-acetyl-N-(7-fluoronaphtho[2,1-d]thiazol-2-yl)piperazine-2-carboxamide], the IC50 lay in the range of 100 to 500 nM.
Under `O=C(Nc1nc2ccc3cc(F)ccc3c2s1)C1CCNCC1` [Compound 43] stands 100 to 500 nM.
The figure for `CC(C)(C)OC(=O)N[C@H]1CCC[C@@H](C(=O)Nc2nc3ccc4cc(F)ccc4c3s2)C1` [Compound 30, Tert-butyl ((1S,3R)-3-((7-fluoronaphtho[2,1-d]thiazol-2-yl)carbamoyl)cyclohexyl) carbamate] is 100 to 500 nM.
Turning to `CC(C)(C)OC(=O)N1CCC[C@H](C(=O)Nc2nc3ccc4cc(F)ccc4c3s2)C1` [Compound 62, tert-butyl (S)-3-((7-fluoronaphtho[2,1-d]thiazol-2-yl)carbamoyl)piperidine-1-carboxylate], the IC50 is 1000 to 20000 nM.
`O=C(Nc1nc2ccc3cc(F)ccc3c2s1)C1CCNC1` (racemic) [Compound 83, N-(7-fluoronaphtho[2,1-d]thiazol-2-yl)pyrrolidine-3-carboxamide]: the IC50 lay in the range of 1 to 100 nM.

For the origin of these results see patent publication US20220281863A1, “COMPOUNDS, COMPOSITIONS AND METHODS OF TREATING DISORDERS” (Reverie Labs, Inc., priority 2019, published 2022).
